The target in one series is T1, TPM3-TRKA fusion protein (Homo sapiens, UniProt P04629).
T1 construct: The resulted chimeric proteins always retain the kinase domain of TRK proteins; TPM3 (fusion partner, N-terminal part of tropomyosin alpha-3, P06753); endogenous in cells; host or cells: KM12 colon cancer cells; the other entry of the earlier key: TPM3 (P06753, Tropomyosin alpha-3 chain)
In words: TPM3-TRKA fusion protein levels in KM12 cells (Western blot). It counts as cell-based. The settings on record: for percent degradation of TPM3-TRKA protein at 0.01 µM: 16 h, TPM3-TRKA degradation in KM12 cells at 10 nM compound, category of percentage degradation, read-out: Degradation (at 10 nM); for TRKA protein levels: dose range (FIG. 8); for relative effectiveness at degrading TRKA: 0.4-30 nM, 8-16 hours, comparison of enantiomers (FIG. 28A-28B). Summed up: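 TPM3-TRKA levels were assessed by Western blot with chemiluminescent detection and band densitometry, after SDS-PAGE of BCA-normalized RIPA lysates. Before lysis, KM12 cells received DMSO, compounds or matched control compounds at concentrations including 0.1, 1, 10 and 100 nM and 0.4–30 nM. Exposures lasted 4 h, 8–16 h or 16 h.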

The nature of series [1]: Mouse pharmacokinetic (PK) studies, plasma concentrations. It counts as in vivo, mice. The conditions noted are these: for bioavailability: mouse, plasma, oral, male ICR mice, single dose 10 mg/kg orally or 1 mg/kg intravenously (FIG. 23A). How it is done: A single […] intraperitoneal injection of compound TR-123 was evaluated. Plasma concentrations of TR-123 reported at each of the 6 time points (30 min, 1 h, […], 4 h, 8 h, and 12 h post compound administration) are the average values from 3 test animals.
A single 2 mg/kg intravenous injection and 20 mg/kg oral gavage of TR-198 were evaluated in mice. Plasma concentrations of TR-198 reported at each of the 6 time points (5 min, 30 min, 2 h, 4 h, 8 h, and 12 h post compound administration via IV, 30 min, 1 h, 2 h, 4 h, 8 h, and 12 h post compound administration via p.o.) are the average values from 3 test animals.
Plasma concentrations of TR-231 and TR-275 were determined following a single dose of 10 mg/kg orally or 1 mg/kg intravenously in male ICR mice (FIG. 23A). Plasma concentrations of TR-231 or TR-275 are examined at indicated different time points post compound administration. The reported values are the average values from 3 test animals.
Standard PK studies were conducted using male Swiss Albino mice by Sai Life Sciences or using male ICR mice by Cullgen. Plasma exposures of TR-123 (10 mg/kg, intraperitoneal injection), TR-198 (20 mg/kg, oral gavage, or 2 mg/kg, intravenous injection), TR-231 and TR-275 (10 mg/kg, oral gavage, or 1 mg/kg, intravenous injection) were determined. Plasma concentrations were reported at indicated time points as the average values derived from three experimental animals. Error bars represent standard deviations.

A further series has as its target T2, wildtype TRKA protein (Homo sapiens, UniProt P04629).
T2 construct: wildtype TRKA protein expressed by HEL cells; endogenous in cells; host or cells: HEL erythroleukemia cells
Kind of series: Wildtype TRKA protein levels in HEL erythroleukemia cells (Western blot). The format is cell-based. The conditions noted are these: for TRKA protein levels: dose range (FIG. 8). On the procedure: KM12 or HEL cells were treated with a dose range of compound TR-123 or TR-123-negative. The latter lost binding to cereblon (CRBN) due to a chemical modification.
KM12 or HEL cells were treated with a single dose of compound TR-123 or combination with MG-132, Bortezomib, MLN4924 or Pomalidomide.
HEL cells were treated with heterobifunctional compounds at 10 nM or 100 nM for 16 hours.
KM12, H358, HEL, SU-DHL-1 and other cells were cultured at 37° C. with 5% CO2 in RPMI 1640 Medium supplemented with 10% fetal bovine serum. Cells were authenticated using the short tandem repeat (STR) assays. Mycoplasma test results were negative. Stable cell lines were established by lentivirus transduction, selected and maintained in medium containing 1 μg/mL puromycin (Beyotime Biotechnology).
Cultured cells were washed with cold PBS once and lysed in cold RIPA buffer supplemented with protease inhibitors and phosphatase inhibitors (Beyotime Biotechnology). The solutions were then incubated at 4° C. for 30 minutes with gentle agitation to fully lyse cells. For tumor tissues, tumors were cut into small pieces, milled with cold RIPA buffer using a mechanical homogenizer and lysed for 1 hour at 4° C. Cell lysates were centrifuged at 13,000 rpm for 10 minutes at 4° C. and pellets were discarded. Total protein concentrations in the lysates were determined by BCA assays (Beyotime Biotechnology). Cell lysates were mixed with Laemmli loading buffer to 1× and heated at 99° C. for 5 min. Proteins were resolved on SDS-PAGE and visualized by chemiluminescence. Images were taken by a ChemiDoc MP Imaging system (Bio-Rad). Protein bands were quantitated using the software provided by Bio-Rad.

For the next series, the system named is KM12 cells. Kind of series: KM12 cell viability (CellTiter-Glo). It counts as cell-based. The settings on record: Homo sapiens, 72 h; KM12 cell viability, CellTiter-Glo, three days treatment; read-out: IC50. Summed up:
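Three-day exposure of KM12 cells (5000/well, RPMI 1640 with 10% FBS, 37 °C, 5% CO2) to compound dilution series, 3-fold over 8 or 11 points (top 1000 nM in the 8-point format) or 2-fold over 12. CellTiter-Glo readout, with IC50 fitted by nonlinear least-squares regression.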

As usually defined, the bioavailability is dose-corrected exposure relative to a reference, in per cent. Read a low bioavailability as poor availability. As a reminder, the IC50 is the concentration needed to halve the response being measured.

T2 sequence (P04629 33-796): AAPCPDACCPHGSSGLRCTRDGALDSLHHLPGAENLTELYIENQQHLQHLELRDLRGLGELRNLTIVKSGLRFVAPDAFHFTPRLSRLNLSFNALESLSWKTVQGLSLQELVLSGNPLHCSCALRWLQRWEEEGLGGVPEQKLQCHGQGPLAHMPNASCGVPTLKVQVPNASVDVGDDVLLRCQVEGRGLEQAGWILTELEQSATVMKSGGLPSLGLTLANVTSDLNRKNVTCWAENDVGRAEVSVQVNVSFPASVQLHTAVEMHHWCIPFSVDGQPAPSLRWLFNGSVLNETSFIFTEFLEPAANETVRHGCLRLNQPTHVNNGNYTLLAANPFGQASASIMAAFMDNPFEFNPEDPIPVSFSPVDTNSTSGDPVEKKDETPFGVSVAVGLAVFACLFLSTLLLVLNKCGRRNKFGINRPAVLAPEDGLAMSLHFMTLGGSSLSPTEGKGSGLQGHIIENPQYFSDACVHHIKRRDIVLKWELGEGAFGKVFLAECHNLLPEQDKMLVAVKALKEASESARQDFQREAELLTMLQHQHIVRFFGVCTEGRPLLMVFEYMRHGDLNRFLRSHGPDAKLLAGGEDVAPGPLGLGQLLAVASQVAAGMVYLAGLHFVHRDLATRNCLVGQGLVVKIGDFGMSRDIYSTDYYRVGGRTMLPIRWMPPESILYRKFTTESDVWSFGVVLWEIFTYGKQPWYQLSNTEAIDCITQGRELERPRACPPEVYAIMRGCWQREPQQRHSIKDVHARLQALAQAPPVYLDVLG
T1 sequence (P04629 with tags, fused parts or gaps): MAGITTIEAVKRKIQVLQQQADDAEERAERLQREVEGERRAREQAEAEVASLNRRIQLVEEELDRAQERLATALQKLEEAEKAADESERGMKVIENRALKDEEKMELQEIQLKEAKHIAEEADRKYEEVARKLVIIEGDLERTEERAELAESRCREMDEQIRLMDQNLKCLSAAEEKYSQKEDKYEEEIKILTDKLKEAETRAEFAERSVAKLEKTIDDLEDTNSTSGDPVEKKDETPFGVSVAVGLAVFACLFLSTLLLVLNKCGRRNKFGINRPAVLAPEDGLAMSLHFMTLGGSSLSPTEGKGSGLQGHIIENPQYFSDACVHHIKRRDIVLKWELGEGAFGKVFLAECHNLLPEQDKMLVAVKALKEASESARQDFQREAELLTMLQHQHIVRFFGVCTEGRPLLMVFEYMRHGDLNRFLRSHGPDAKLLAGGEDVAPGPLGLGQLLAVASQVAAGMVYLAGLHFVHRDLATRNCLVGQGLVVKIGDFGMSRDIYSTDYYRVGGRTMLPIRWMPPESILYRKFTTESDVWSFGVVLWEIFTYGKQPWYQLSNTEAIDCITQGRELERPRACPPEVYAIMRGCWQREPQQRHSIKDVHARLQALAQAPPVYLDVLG

On to `O=C1CCC(N2C(=O)c3ccc(NCC(=O)N4CCN(c5cccc(-c6cnc7ccc(N8CCC[C@@H]8c8cccc(F)c8)nn67)n5)CC4)cc3C2=O)C(=O)N1` (stereo partly drawn) [TR-123, 2-(2,6-dioxopiperidin-3-yl)-5-((2-(4-(6-(6-((R)-2-(3-fluorophenyl)pyrrolidin-1-yl)imidazo[1,2-b]pyridazin-3-yl)pyridin-2-yl)piperazin-1-yl)-2-oxoethyl)amino) isoindoline-1,3-dione], for which the percent degradation of TPM3-TRKA protein at 0.01 µM on TPM3-TRKA fusion protein is above 80%. In addition, the TRKA protein levels result on TPM3-TRKA fusion protein (KM12 cells) and on wildtype TRKA protein was “reduced TRKA protein levels in a concentration-dependent manner” each time. The “TRKA degradation in combination with MG-132, Bortezomib, MLN4924 or Pomalidomide” value at TPM3-TRKA fusion protein (KM12 cells, single dose (FIG. 9)) is on record as “compromised”; on wildtype TRKA protein (single dose (FIG. 9)), “compromised”. The plasma exposure result in series [1] (single 20 mg/kg intraperitoneal injection, over 12 hours, average of 3 animals (FIG. 11)) is “good plasma exposure”.
As to `CN1C(=O)CCC(N2C(=O)c3ccc(NCC(=O)N4CCN(c5cccc(-c6cnc7ccc(N8CCC[C@@H]8c8cccc(F)c8)nn67)n5)CC4)cc3C2=O)C1=O` (stereo partly drawn) [TR-123-negative, 5-((2-(4-(6-(6-((R)-2-(3-fluorophenyl)pyrrolidin-1-yl)imidazo[1,2-b]pyridazin-3-yl)pyridin-2-yl)piperazin-1-yl)-2-oxoethyl)amino)-2-(1-methyl-2,6-dioxopiperidin-3-yl)isoindoline-1,3-dione], the TRKA protein levels result at TPM3-TRKA fusion protein (KM12 cells) and on wildtype TRKA protein was “had none or less effects on TRKA protein levels” each time.
Consider `O=C1CCC(N2C(=O)c3ccc(N4CC(CN5CCN(c6ccc(C(=O)Nc7n[nH]c8ccc(Cc9cc(F)cc(F)c9)cc78)c(NC7CCOCC7)c6)CC5)C4)cc3C2=O)C(=O)N1` (stereo not shown) [TR-231], for which, on TPM3-TRKA fusion protein, the percent degradation of TPM3-TRKA protein at 0.01 µM is above 80%. In series [1], the bioavailability was around 48%. The IC50 in the series on KM12 cells came to 3 nM.
`O=C1CCC(N2C(=O)c3ccc(N4CC(N5CCN(c6ccc(C(=O)Nc7n[nH]c8ccc(Cc9cc(F)cc(F)c9)cc78)c(NC7CCOCC7)c6)CC5)C4)cc3C2=O)C(=O)N1` (stereo not shown) [TR-275, N-(5-(3,5-difluorobenzyl)-1H-indazol-3-yl)-4-(4-(1-(2-(2,6-dioxopiperidin-3-yl)-1,3-dioxoisoindolin-5-yl)azetidin-3-yl)piperazin-1-yl)-2-((tetrahydro-2H-pyran-4-yl)amino)benzamide]: the percent degradation of TPM3-TRKA protein at 0.01 µM at TPM3-TRKA fusion protein fell in the range of 50 to 80%. This compound had a bioavailability in series [1] of around 27%. For the same compound, in the series with KM12 cells, the IC50 was determined as 8.9 nM.
As for `O=C1CCC(N2C(=O)c3ccc(C4CN(C5CCN(c6ccc(C(=O)Nc7n[nH]c8ccc(Cc9cc(F)cc(F)c9)cc78)c(NC7CCOCC7)c6)CC5)C4)cc3C2=O)C(=O)N1` (stereo not shown) [TR-339, N-(5-(3,5-difluorobenzyl)-1H-indazol-3-yl)-4-(4-(3-(2-(2,6-dioxopiperidin-3-yl)-1,3-dioxoisoindolin-5-yl)azetidin-1-yl)piperidin-1-yl)-2-((tetrahydro-2H-pyran-4-yl)amino)benzamide], the percent degradation of TPM3-TRKA protein at 0.01 µM on TPM3-TRKA fusion protein was above 80%. Further, the half-inhibitory concentration (IC50) in the series on KM12 cells came out at 8.1 nM.
For the compound `O=C1CCC(N2C(=O)c3ccc(N4CC5(C4)CN(C4CCN(c6ccc(C(=O)Nc7n[nH]c8ccc(Cc9cc(F)cc(F)c9)cc78)c(NC7CCOCC7)c6)CC4)C5)cc3C2=O)C(=O)N1` (stereo not shown) [TR-340, N-(5-(3,5-difluorobenzyl)-1H-indazol-3-yl)-4-(4-(6-(2-(2,6-dioxopiperidin-3-yl)-1,3-dioxoisoindolin-5-yl)-2,6-diazaspiro[3.3]heptan-2-yl)piperidin-1-yl)-2-((tetrahydro-2H-pyran-4-yl)amino)benzamide], at TPM3-TRKA fusion protein, the percent degradation of TPM3-TRKA protein at 0.01 µM is above 80%. Further, the IC50 with KM12 cells amounted to 7.5 nM.
As to `O=C1CC[C@H](N2C(=O)c3ccc(N4CC(CN5CCN(c6ccc(C(=O)Nc7n[nH]c8ccc(Cc9cc(F)cc(F)c9)cc78)c(NC7CCOCC7)c6)CC5)C4)cc3C2=O)C(=O)N1` [TR-341, (S)—N-(5-(3,5-difluorobenzyl)-1H-indazol-3-yl)-4-(4-((1-(2-(2,6-dioxopiperidin-3-yl)-1,3-dioxoisoindolin-5-yl)azetidin-3-yl)methyl)piperazin-1-yl)-2-((tetrahydro-2H-pyran-4-yl)amino)benzamide], the percent degradation of TPM3-TRKA protein at 0.01 µM on TPM3-TRKA fusion protein was above 80%. Moreover, in the series on KM12 cells, the IC50 was determined as 3 nM.
On to `O=C1CC[C@@H](N2C(=O)c3ccc(N4CC(CN5CCN(c6ccc(C(=O)Nc7n[nH]c8ccc(Cc9cc(F)cc(F)c9)cc78)c(NC7CCOCC7)c6)CC5)C4)cc3C2=O)C(=O)N1` [TR-342, (R)—N-(5-(3,5-difluorobenzyl)-1H-indazol-3-yl)-4-(4-((1-(2-(2,6-dioxopiperidin-3-yl)-1,3-dioxoisoindolin-5-yl)azetidin-3-yl)methyl)piperazin-1-yl)-2-((tetrahydro-2H-pyran-4-yl)amino)benzamide], for which the percent degradation of TPM3-TRKA protein at 0.01 µM at TPM3-TRKA fusion protein was above 80%. The “relative effectiveness at degrading TRKA” value at TPM3-TRKA fusion protein (KM12 cells) was “more effective at degrading TRKA at lower concentrations than TR-342”. Besides, the IC50 in the series with KM12 cells was found to be 3 nM.
As for `O=C1CC[C@H](N2C(=O)c3ccc(N4CC(N5CCN(c6ccc(C(=O)Nc7n[nH]c8ccc(Cc9cc(F)cc(F)c9)cc78)c(NC7CCOCC7)c6)CC5)C4)cc3C2=O)C(=O)N1` [TR-343, (S)—N-(5-(3,5-difluorobenzyl)-1H-indazol-3-yl)-4-(4-(1˜ (2-(2,6-dioxopiperidin-3-yl)-1,3-dioxoisoindolin-5-yl)azetidin-3-yl)piperazin-1-yl)-2-((tetrahydro-2H-pyran-4-yl)amino)benzamide], on TPM3-TRKA fusion protein, the percent degradation of TPM3-TRKA protein at 0.01 µM is above 80%. Besides, the “relative effectiveness at degrading TRKA” value at TPM3-TRKA fusion protein (KM12 cells) is recorded as “more effective at degrading TRKA at lower concentrations than TR-344”. Moreover, the IC50 in the series on KM12 cells worked out at 9 nM.
On to `O=C1CC[C@@H](N2C(=O)c3ccc(N4CC(N5CCN(c6ccc(C(=O)Nc7n[nH]c8ccc(Cc9cc(F)cc(F)c9)cc78)c(NC7CCOCC7)c6)CC5)C4)cc3C2=O)C(=O)N1` [TR-344, (R)—N—(S-(3,5-difluorobenzyl)-1H-indazol-3-yl)-4-(4-(1-(2-(2,6-dioxopiperidin-3-yl)-1,3-dioxoisoindolin-5-yl)azetidin-3-yl)piperazin-1-yl)-2-((tetrahydro-2H-pyran-4-yl)amino)benzamide], for which the percent degradation of TPM3-TRKA protein at 0.01 µM on TPM3-TRKA fusion protein is above 80%. Besides, in the series on KM12 cells, the IC50 was determined as 9 nM.

The values are drawn from patent US12410171B2, “Tropomyosin receptor kinase (TRK) degradation compounds and methods of use” (Cullgen (Shanghai), Inc., priority 2020, dated 2025).
